Common to all, as to assay type: cell-based
Series [1] concerns corneal barrier of the microfluidic in vitro cornea device. The experiment in a line: Morphological observation of the chambers after trypan blue exposure. Conditions: trypan blue injected into TFEp channel at 3 μL/min for 4 min, incubated at 37° C. for 15 min; observed at any chamber.
For series [2], the system named is cells of the microfluidic in vitro cornea device. The experiment in a line: Cytotoxicity by adenylate kinase release (luminescence) from cell-laden channels. Conditions: trypan blue exposure; compared with positive control (lysis buffer) and negative control (media only). The protocol: (§1) In some embodiments, all channels of the device can be coated with human fibronectin to facilitate cellular attachment. For example, primary human corneal fibroblasts can be seeded on Day 0. Fibroblasts can be harvested, concentrated to 1×10^7 cells/mL and injected into the stromal chamber via a remote head syringe pump at 5 μL/min until cells are homogenously distributed. Devices can then be incubated at 37° C., 5% CO2 for 4 hours to allow for attachment. Media can be subsequently refreshed every 24 hours. Primary human corneal epithelial cells can be seeded into the TFEp circulation channel on Day 3. […]
(§2) Viability can be assessed on-chip as an endpoint for epithelial, fibroblast, and endothelial cells. Devices are prepared for viability quantitation by incubation with calcein AM and ethidium homodimer in PBS. After rinsing the cells with PBS, fluorescent images are taken via microscope, and the data was analyzed to determine cornea triculture viability (sec, FIG. 5A). […]
Following exposure, FSS can be injected into the TFEp channel and permeability assayed. […] Samples can be taken from cell-laden channels (individually or combined) and placed in a low volume, white walled […] plate for luminescence analysis using a plate reader. […] The increase in AK release in arbitrary luminescence units compares the toxic exposure of trypan blue to positive and negative controls.

The test system of series [3] is corneal barrier of the microfluidic in vitro cornea device (epithelial, fibroblast, endothelial triculture). The series can be described thus: FSS permeability of the in vitro cornea device after trypan blue exposure. Conditions: trypan blue injected into TFEp channel at 3 μL/min for 4 min, incubated at 37° C. for 15 min; then FSS injected into TFEp channel. The protocol: as §1, §2
Following exposure, FSS can be injected into the TFEp channel and permeability assayed. […] Samples can be taken from cell-laden channels (individually or combined) and placed in a low volume, white walled […] plate for luminescence analysis using a plate reader. […] The increase in AK release in arbitrary luminescence units compares the toxic exposure of trypan blue to positive and negative controls. […]

As to `Cc1cc(-c2ccc(/N=N/c3c(S(=O)(=O)O)cc4cc(S(=O)(=O)O)cc(N)c4c3O)c(C)c2)ccc1/N=N/c1c(S(=O)(=O)O)cc2cc(S(=O)(=O)O)cc(N)c2c1O` [trypan blue], the “Morphological effects of exposure” value in series [1] is “evidence of barrier degradation (e.g., cell death and detachment) and apoptosis”. In addition, in series [2], the “Increase in adenylate kinase release” value came out at 1.5 fold. For the same compound, in series [3], the “Permeability in trypan blue treated devices compared to controls” value stood at 10 fold.

Source of the values: US20240203290A1, “VITRO MODEL DEVICE FOR CORNEA BARRIER” (CFD Research Corporation, priority 2022, published 2024).
